Reference: the supplement of paper PMC10949913

Key:
Details in all cases: 48 h
[1] = system: CU-ACC1; experiment: area under concentration-response curve (viability) (AUC (a.u.)); higher = less active
Outline: (§1)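 Library compounds were dispensed at 11 concentrations (23 nL each) onto three adrenocortical carcinoma cell lines in 1,536-well plates. Luminescence was recorded after 48 h using CellTiter-Glo, and signals were normalised per plate to vehicle and empty-well controls. Fitted concentration-response curves of inhibitory or non-responding classes only supplied the AC50 and area under the curve.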

[2] = system: CU-ACC2; experiment: as above
Outline: as §1

[3] = system: NCI-H295R; experiment: as above
Outline: as §1

[4] = system: CU-ACC1; experiment: AC50 viability; higher = less potent
Outline: as §1

[5] = system: CU-ACC2; experiment: AC50 viability; higher = less potent
Outline: as §1

[6] = system: NCI-H295R; experiment: AC50 viability; higher = less potent
Outline: as §1

Compound: Cn1cc(-c2ccc([S+](=O)([O-])n3ccc(/C=C/C(=O)Nc4ccccc4N)c3)cc2)cn1
- area under concentration-response curve [1]: 377
- area under concentration-response curve [2]: 464
- area under concentration-response curve [3]: 352
- AC50 viability [4]: 13.2 µM
- AC50 viability [5]: 9.34 µM
- AC50 viability [6]: 5.25 µM

Compound: C[C@@H]1C[C@@H]([C@H](O)CC2CC(=O)NC(=O)C2)C(=O)[C@@H](C)C1
- area under concentration-response curve [1]: 345
- area under concentration-response curve [2]: 333
- area under concentration-response curve [3]: 405
- AC50 viability [4]: 1.05 µM
- AC50 viability [5]: 0.59 µM
- AC50 viability [6]: 2.95 µM

Compound: CC(C)(O)CC(=O)NCCn1ccc2ncnc(Nc3ccc(Oc4cccc(C(F)(F)F)c4)c(Cl)c3)c21
- area under concentration-response curve [1]: 465
- area under concentration-response curve [2]: 472
- area under concentration-response curve [3]: 443
- AC50 viability [4]: 20.9 µM
- AC50 viability [5]: 23.5 µM
- AC50 viability [6]: 20.9 µM

Compound: Cc1cc(CN2CCN(c3c(Br)cnc4[nH]c(-c5ccc(N6CCN(C)CC6)cc5)nc34)CC2)no1
- area under concentration-response curve [1]: 459
- area under concentration-response curve [2]: 478
- area under concentration-response curve [3]: 425
- AC50 viability [4]: 0.934 µM
- AC50 viability [5]: 20.9 µM
- AC50 viability [6]: 26.3 µM

Compound: COc1cc2ncnc(Nc3ccc(F)c(Cl)c3)c2cc1NC(=O)/C=C/CN1CCCCC1
- area under concentration-response curve [1]: 414
- area under concentration-response curve [2]: 493
- area under concentration-response curve [3]: 459
- AC50 viability [4]: 10.5 µM
- AC50 viability [5]: 8.33 µM
- AC50 viability [6]: 6.61 µM

Compound: C=CC(=O)N1CC[C@@H](Oc2nc(Nc3ccc(N4CCC(N5CCN(C)CC5)CC4)cc3)c(C(N)=O)nc2CC)C1
- area under concentration-response curve [1]: 521
- area under concentration-response curve [2]: 559
- area under concentration-response curve [3]: 529
- AC50 viability [4]: 8.11 µM
- AC50 viability [5]: 8.11 µM
- AC50 viability [6]: 8.11 µM

Compound: Cc1cnc(Nc2ccc(OCCN3CCCC3)cc2)nc1Nc1cccc([S+](=O)([O-])NC(C)(C)C)c1
- area under concentration-response curve [1]: 491
- area under concentration-response curve [2]: 547
- area under concentration-response curve [3]: 501
- AC50 viability [4]: 16.6 µM
- AC50 viability [5]: 8.33 µM
- AC50 viability [6]: 8.33 µM

Compound: Nc1ncnc2c1c(-c1cnc3[nH]ccc3c1)nn2C1CCCC1
- area under concentration-response curve [1]: 395
- area under concentration-response curve [2]: 338
- area under concentration-response curve [3]: 414
- AC50 viability [4]: 5.9 µM
- AC50 viability [5]: 13.2 µM
- AC50 viability [6]: 5.9 µM

Compound: CN(C)c1cc2c(cc1Sc1nc3c(N)nccc3n1CCNCC(C)(C)C)OCO2
- area under concentration-response curve [1]: 391
- area under concentration-response curve [2]: 499
- area under concentration-response curve [3]: 467
- AC50 viability [4]: 2.95 µM
- AC50 viability [5]: 2.95 µM
- AC50 viability [6]: 2.35 µM

Compound: O=C(Nc1ncc(SCCN2CCCC2)s1)[C@]1(c2ccc([S+](=O)([O-])C3CC3)cc2)C[C@H]1C1CCCCC1
- area under concentration-response curve [1]: 442
- area under concentration-response curve [2]: 507
- area under concentration-response curve [3]: 437
- AC50 viability [4]: 13.2 µM
- AC50 viability [5]: 26.3 µM
- AC50 viability [6]: 10.5 µM

Compound: Cc1cc(O[C@@H](CCC(F)(F)F)c2ccc(C(=O)NCCC(=O)O)cc2)cc(C)c1-c1ccc(C(C)(C)C)cc1
- area under concentration-response curve [1]: 382
- area under concentration-response curve [2]: 409
- area under concentration-response curve [3]: 384
- AC50 viability [4]: 18.6 µM
- AC50 viability [5]: 23.5 µM
- AC50 viability [6]: 11.8 µM

Compound: COc1cc(N2CCC(N3CCN(C)CC3)CC2)ccc1Nc1ncc(Cl)c(Nc2ccccc2[S+](=O)([O-])C(C)C)n1
- area under concentration-response curve [1]: 436
- area under concentration-response curve [2]: 479
- area under concentration-response curve [3]: 432
- AC50 viability [4]: 11.8 µM
- AC50 viability [5]: 5.25 µM
- AC50 viability [6]: 2.95 µM

Compound: c1ccc(-c2ccc(CNc3nc(-c4ccccn4)nnc3-c3ccccc3)cc2)cc1
- area under concentration-response curve [1]: 385
- area under concentration-response curve [2]: 504
- area under concentration-response curve [3]: 461
- AC50 viability [4]: 2.35 µM
- AC50 viability [5]: 14.8 µM
- AC50 viability [6]: 4.17 µM

Compound: COc1cc2c(NC3CCN(C(C)C)CC3)nc(C3CCCCC3)nc2cc1OCCCN1CCCC1
- area under concentration-response curve [1]: 369
- area under concentration-response curve [2]: 350
- area under concentration-response curve [3]: 404
- AC50 viability [4]: 11.8 µM
- AC50 viability [5]: 14.8 µM
- AC50 viability [6]: 9.34 µM

Compound: CC(=O)c1ccc2c(c1)c1cc(C(C)=O)ccc1n2CCNC(C)C
- area under concentration-response curve [1]: 405
- area under concentration-response curve [2]: 415
- area under concentration-response curve [3]: 421
- AC50 viability [4]: 2.09 µM
- AC50 viability [5]: 2.95 µM
- AC50 viability [6]: 2.35 µM

Compound: C=C1C(=O)O[C@@H]2[C@H]3O[C@]3(C)CC/C=C(\C)CC[C@@H]12
- area under concentration-response curve [1]: 375
- area under concentration-response curve [2]: 522
- area under concentration-response curve [3]: 497
- AC50 viability [4]: 14.8 µM
- AC50 viability [5]: 7.42 µM
- AC50 viability [6]: 9.34 µM

Compound: c1cc(Nc2cc(C3CC3)n[nH]2)nc(Nc2ccc3nc[nH]c3c2)n1
- area under concentration-response curve [1]: 419
- area under concentration-response curve [2]: 408
- area under concentration-response curve [3]: 462
- AC50 viability [4]: 1.05 µM
- AC50 viability [5]: 0.332 µM
- AC50 viability [6]: 7.42 µM

Compound: Cc1ncc(-c2ccnc(Nc3ccc([S+](C)(=O)[O-])cc3)n2)n1C(C)C
- area under concentration-response curve [1]: 286
- area under concentration-response curve [2]: 236
- area under concentration-response curve [3]: 307
- AC50 viability [4]: 0.742 µM
- AC50 viability [5]: 0.332 µM
- AC50 viability [6]: 2.95 µM

Compound: CN(C)Cc1c(C(=O)NCCOc2ccc(C(=O)NO)cc2)oc2ccccc12
- area under concentration-response curve [1]: 412
- area under concentration-response curve [2]: 425
- area under concentration-response curve [3]: 412
- AC50 viability [4]: 1.48 µM
- AC50 viability [5]: 1.48 µM
- AC50 viability [6]: 1.32 µM

Compound: OCCCNc1cc(-c2ccnc(Nc3cccc(Cl)c3)n2)ccn1
- area under concentration-response curve [1]: 275
- area under concentration-response curve [2]: 307
- area under concentration-response curve [3]: 339
- AC50 viability [4]: 0.148 µM
- AC50 viability [5]: 0.0934 µM
- AC50 viability [6]: 0.263 µM

Compound: CCN(CC)Cc1ccc2cc(COC(=O)Nc3ccc(C(=O)NO)cc3)ccc2c1
- area under concentration-response curve [1]: 365
- area under concentration-response curve [2]: 390
- area under concentration-response curve [3]: 382
- AC50 viability [4]: 3.72 µM
- AC50 viability [5]: 4.68 µM
- AC50 viability [6]: 9.34 µM

Compound: Cc1n[nH]c2ccc(-c3cncc(OC[C@@H](N)Cc4c[nH]c5ccccc45)c3)cc12
- area under concentration-response curve [1]: 318
- area under concentration-response curve [2]: 360
- area under concentration-response curve [3]: 351
- AC50 viability [4]: 1.66 µM
- AC50 viability [5]: 2.09 µM
- AC50 viability [6]: 2.95 µM

Compound: CCCCC(=O)OCC(=O)[C@]1(O)Cc2c(O)c3c(c(O)c2[C@@H](O[C@H]2C[C@H](NC(=O)C(F)(F)F)[C@H](O)[C@H](C)O2)C1)C(=O)c1c(OC)cccc1C3=O
- area under concentration-response curve [1]: 373
- area under concentration-response curve [2]: 544
- area under concentration-response curve [3]: 537
- AC50 viability [4]: 7.42 µM
- AC50 viability [5]: 9.34 µM
- AC50 viability [6]: 16.6 µM

Compound: CC(C)c1cnn2c(NCc3ccccc3)cc(N[C@@H](CO)[C@H](O)CO)nc12
- area under concentration-response curve [1]: 372
- area under concentration-response curve [2]: 326
- area under concentration-response curve [3]: 395
- AC50 viability [4]: 0.372 µM
- AC50 viability [5]: 0.295 µM
- AC50 viability [6]: 1.48 µM

Compound: CCNCCc1ccc(CN(CC)c2cc(OC)ccc2[C@@H]2CCc3cc(O)ccc3C2)cc1
- area under concentration-response curve [1]: 447
- area under concentration-response curve [2]: 515
- area under concentration-response curve [3]: 440
- AC50 viability [4]: 9.34 µM
- AC50 viability [5]: 7.42 µM
- AC50 viability [6]: 7.42 µM

Compound: C=CC(=O)Nc1cccc(Nc2nc(Nc3ccc(NC4CN(CCF)C4)cc3OC)ncc2C(F)(F)F)c1
- area under concentration-response curve [1]: 398
- area under concentration-response curve [2]: 386
- area under concentration-response curve [3]: 446
- AC50 viability [4]: 9.34 µM
- AC50 viability [5]: 14.8 µM
- AC50 viability [6]: 8.33 µM

Compound: Nc1ccc(C(=O)c2cc3c(ccc4ccccc43)[nH]2)cc1
- area under concentration-response curve [1]: 466
- area under concentration-response curve [2]: 471
- area under concentration-response curve [3]: 419
- AC50 viability [4]: 6.05 µM
- AC50 viability [5]: 38.2 µM
- AC50 viability [6]: 12.1 µM
